Test results: US4822791A, “Pharmaceutical compositions of-2,2-1,1-[bis-2,2'-(3,1-benzoxazin-4-one)9 ethylenes” (priority 1984, dated 1989)
Values joined by “and” are separate entries in the source; they are usually repeats but may differ in a detail not shown here. Equal entries are not always repeated.

Legend:
[1] = Acute toxicity LD50 in mice (Test Example 8); settings: mouse, in vivo, one week, Probit method
Experimental: (§1) ddy-Strain mice (male) and Wistar strain rats were used to obtain LD50 values.
(§2) According to the ordinary procedure, suspension or solution of test sample was administered to the animals. From the number of the died animals until one week after the administration, LD50 values were obtained by Probit method.

[2] = Acute toxicity LD50 in rats (Test Example 8); settings: rat, in vivo, po; one week; Probit method; read-out: LD50 value (mg/kg body weight) Rat p.o.
Experimental: as §1, §2

hyaluronidase [3] = target: T1, hyaluronidase (Bos taurus, UniProt Q2YDK3); test: Anti-hyaluronidase activity (modified Morgan-Elson method); format: biochemical; settings: hyaluronidase 340NF unit/ml; activating agent Compound 48/80 or CaCl2; read-out: IC50
T1 sequence (Q2YDK3 36-553): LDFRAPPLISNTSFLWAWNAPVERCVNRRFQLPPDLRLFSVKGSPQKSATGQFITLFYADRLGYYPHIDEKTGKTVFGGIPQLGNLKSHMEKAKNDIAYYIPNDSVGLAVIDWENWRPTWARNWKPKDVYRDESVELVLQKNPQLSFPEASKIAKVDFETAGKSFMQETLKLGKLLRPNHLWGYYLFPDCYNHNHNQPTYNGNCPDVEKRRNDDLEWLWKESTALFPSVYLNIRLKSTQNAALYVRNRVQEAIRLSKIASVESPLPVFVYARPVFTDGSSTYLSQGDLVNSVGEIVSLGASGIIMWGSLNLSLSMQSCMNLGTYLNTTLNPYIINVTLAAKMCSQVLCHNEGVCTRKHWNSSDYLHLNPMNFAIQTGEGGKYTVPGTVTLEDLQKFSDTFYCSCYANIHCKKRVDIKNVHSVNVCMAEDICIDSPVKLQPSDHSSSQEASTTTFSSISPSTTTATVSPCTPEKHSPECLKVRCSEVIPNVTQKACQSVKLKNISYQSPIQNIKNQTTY
Experimental: A buffer soluticn of hyaluronidase (0.1 ml) was taken in a test tube and 0.2 ml each of the buffer solution of various compounds in various concentrations was added, and the mixture was preincubated at 37° C. for 20 minutes. Then, an activating agent (Compound 48/80 or CaCl2) (0.2 ml) was added to make the total amount 0.5 ml, which was incubated at 37° C. for 20 minutes. Then, potassium hyaluronate buffer solution (0.5 ml) was added, and the mixture was incubated at 37° C. for 40 minutes. After cooling, the mixture was treated with aqueous solution of 0.4N NaOH (0.2 ml) and neutralized to stop the reaction. The resulting product was subjecred to measurement of OD585 by the modified Morgan-Elson Method. […] (The final ccncentration of hyaluronidase was 340NF unit/ml.) [formula]

[4] = test system: experimental ulcer model (Shay); test: Anti-ulcer activity in experimental ulcer model (Shay); format: in vivo, Wistar strain male rats
Experimental: Using 5 eight-week old Wistar strain male rats of 1 group, the rats were previously fasted for […]. The compound of an amount proportionate to the body weight based on the body weight after fasting was administered intraduodenally or intraperitoneally.
Each test compound was evenly suspended or dissolved in an aqueous solution of 0.5% CMC ccntaining 0.1% Tween 80, and administered at the rate of 0.5 ml per 100 g of body weight of the animal. To the controls, only the solvent was administered.
Test was carried out in accordance with Shay's method. After 48 hours' fasting, 5 animals per group were subjected to laparotomy under ether anesthesia, the tract between pylorus of stomach and duodenum was ligated, and the solution of the compound was administered intraduodenally (id) or intraperitoneally (ip), followed by suturing the laparotomy part. Eight hours after administration of the compound liquid, each animal was sacrificed by ether anesthesia and stomach was removed. Then, evaluation on the ulcer condition on the inner surface of stomach, and determination of the amount of gastric juice, of acidity by alkali titration, and of pepsin titer based on substrate of hemoglovin were made on the stored gastric juice. With regard to the acidity, gastric juice amount, and pepsin titer, the results were shown in inhibition rate (%) based on the average value of the control groups.

[5] = test system: Mast cell in thoracic cavity; test: Release of histamine by dextran (T-500), mast cell in thoracic cavity (Test Example 12); format: cell-based, rat; settings: Rattus norvegicus, Mast cell, 0.25 h; 10^-3 M; read-out: Effect on release of histamine by dextran (T-500), Mast cell in thoracic cavity (control 100)
Experimental: (§3) Collection of mast cells in abdominal cavity and thoracic cavity and sensitizing of cells were conducted in similar manners to those in Test Example 10, respectively.
(§4) The sample solution was treated with 105 microgramms/ml phosphatidylserin PBS solution (0.5 ml) and incubated at 37° C. for 30 minutes, followed by addition of 25 mg/ml dextran (T-500) PBS solution (0.5 ml) and further incubation for 15 minutes.
(§5) This is conducted in a manner similar to that in Test Example 10.

[6] = test system: anaphylaxis reaction to inhalated antigen; test: Antigen inhalation test on passive sensitized guinea pig (experimental asthma model); format: in vivo; settings: 5 mg/kg iv
Experimental: The test compound and Tranilast were respectively suspended at the time of use in 5% gum arabic solution containing 0.1% Tween 80 at the rate of 40 mg/ml, and were perorally administered at the rate of 0.5 ml per 100 g body weight of the animal.
DSCG was dissolved at the time of use in physiological saline solultion for injection at the rate of 5.0 mg/ml, and was intravenously injected at the rate of 0.1 ml per 100 g body weight of the animal.
Anti-ovalbumin rabbit serum diluted with physiological saline solution for injection so as tc contain anti-ovalbumin rabbit antibody at the rate of 0.187 mg N/ml was intravenously administered to guinea pig at the rate of 0.1 ml per 100 g of body weight and it was passively sensitized.
Twenty-four hours later, the suspension of the compound prepared in (1) above was perorally or intravenously administered to the animal. The animal was put in the inhalation chamber one hour after the administration in case of the peroral administration and five minutes after the administration in case of the intravenous administration, and 2% physiological saline solution of antigen ovalbumin was inhaled by spraying. Over 10 minutes' period from the time immediately after the forced inhalation, the time until its fall attributed to anaphylaxis reaction was recorded, and the numbers of alive and dead animals after lapse of 10 minutes were also counted.

hyaluronidase [7] = settings: known from the literature; cited from earlier work
[8] = test system: mast cell in abdominal cavity; test: Release of histamine by antigen DNP-Ascaris, mast cell in abdominal cavity (Test Example 12); format: cell-based, rat; settings: Rattus norvegicus, Mast cell; 10^-3 M; read-out: Effect on release of histamine by antigen DNP-Ascaris, Mast cell in abdominal cavity (control 100)
Experimental: as §3
(§6) (1) Preparation of DNP-Ascaris antiserum was conducted in manner similar to that in Test Example 6.
(§7) This is conducted in amanner similar to that in Test Example 10.
as §5

[9] = test system: Mast cell in thoracic cavity; test: Histamine release by antigen DNP-Ascaris, mast cell in thoracic cavity (Test Example 10); format: cell-based; settings: Rattus norvegicus, 20 min, 10^-3 M, read-out: released amount of histamin, Mast cell in thoracic cavity (control shown as 100)
Experimental: (§8) Examination was made cn the activity of inhibition of histamine release from mast cell by antigen-antibody reaction.
(§9) Preparation of DNP-Ascaris antiserum was conducted in a manner similar to that in Test Example 6.
(§10) Heparin-containing PBS was injected into the abdominal cavity of rat which was sacrificed by bleeding, after which the abdomen was well massaged, and then peritoneal exudate was sampled. The same liquid was also injected into the thoracic cavity, and after shaking the breast for several minutes, the thoracic cavity liquid was sampled, which was purified by washing several times by centrifugation. The number of the mast cells contained in this liquid was measured and adjusted to a designated concentration. (Mast cells, 8.0×10^4 cells/ml).
To the cell suspension (4 ml, 9×10^5 cells/ml), anti-DNP-Ascaris rat serum (PCA titer, 32) (4 ml) was added, and the mixture was incubated in the presence of heparin at 37° C. for 2.5 hours. To the solution, 70 microgramms/ml phosphatidylserin PBS solution (0.5 ml) was added and the mixture was incubated at 37° C. for 12 minutes, after which 140 microgramms/ml antigen DNP-Ascaris PBS solution (0.5 ml) was added and the mixture was incubated further for 20 minutes. […]

[10] = test system: mast cell in abdominal cavity; test: Release of histamine by dextran (T-500), mast cell in abdominal cavity (Test Example 12); format: cell-based, rat; settings: Rattus norvegicus, Mast cell, 0.25 h, read-out: Effect on release of histamine by dextran (T-500), Mast cell in abdominal cavity (control 100)
Experimental: as §3, §4, §5

[11] = test system: passive cutaneous anaphylaxis (PCA); test: Anti-passive cutaneous anaphylaxis (PCA) activity in rats (Test Example 2); format: in vivo, Wistar strain rats; settings: for inhibition in vivo at 100 mg/kg: Rattus norvegicus, 100 mg/kg PO, N 10
Outline: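 Antiserum from Wistar rats sensitized with ovalbumin (alum plus B. pertussis adjuvant) was diluted 16- or 32-fold and injected into dorsal skin of naive rats, which were held 48 h. Compound was given orally 1 h before i.v. ovalbumin plus Evans blue.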

[12] = test system: Mast cell in thoracic cavity; test: Release of histamine by antigen DNP-Ascaris, mast cell in thoracic cavity (Test Example 12); format: cell-based; settings: Rattus norvegicus, 10^-3 M, read-out: Effect on release of histamine by antigen DNP-Ascaris, Mast cell in thoracic cavity (control 100)
Experimental: as §3, §6, §7, §5

[13] = test system: passive cutaneous anaphylaxis (PCA); test: Anti-passive cutaneous anaphylaxis activity (PCA) in rats (Test Example 9); format: in vivo; settings: Rattus norvegicus, po, 100 mg/kg, 10 animals
Experimental: Wistar strain rats were sensitized with ovalbumin using aluminium hydroxide gel and Bordetella Pertussis vaccine as adjuvants. Dilutions of antiserum (16-fold and 32-fold) obtained by collecting blood samples 14 days later were administered subcutaneously in the dorsal skin of the rats of the same strain at the rate of 0.1 ml per spot, and the rats were grown for 48 hours. One hour after peroral administration of the sample solution, a mixture of antigen ovalbumin and Evans-blue dye was administered to the tail venous of the animal according to the ordinary procedure. Thirty minutes later, the animals were sacrificed by exsanguination, and the areas of blue spots (long diameter×short diameter) eliciting on the portion of the antiserum injection at the dorsal skin were measured to obtain the rate of inhibition based on the average value shown by the control animals.
This test was conducted in a manner similar to that in Test Example 2, except that the dilutions of antiserum were 12- and 24-folds.

[14] = test system: mast cell in abdominal cavity; test: Histamine release by antigen DNP-Ascaris, mast cell in abdominal cavity (Test Example 10); format: cell-based, rat; settings: Rattus norvegicus, Mast cell, 20 min; 10^-3 M; read-out: released amount of histamin, Mast cell in abdominal cavity (control shown as 100)
Experimental: as §8, §9, §10
To the cell suspension (4 ml, 9×10^5 cells/ml), anti-DNP-Ascaris rat serum (PCA titer, 32) (4 ml) was added, and the mixture was incubated in the presence of heparin at 37° C. for 2.5 hours. To the solution, 70 microgramms/ml phosphatidylserin PBS solution (0.5 ml) was added and the mixture was incubated at 37° C. for 12 minutes, after which 140 microgramms/ml antigen DNP-Ascaris PBS solution (0.5 ml) was added and the mixture was incubated further for 20 minutes.
After completion of the reaction, the reaction liquid was centrifuged (500 G, 10 min.) to obtain supernatant solution, and histamin in the supernatant solution was subjected to fluorometry by orthophthalal aldehyde method. The released amount of histamin in the control was shown as 100.

Which results are given for COc1ccc(C=C(C(=O)Nc2ccccc2C(=O)O)C(=O)Nc2ccccc2C(=O)O)cc1OC [Compound 20, 2,2'-[[2-(3,4-dimethoxy)phenylmethylene-1,3-dioxo-1,3-propanediyl]diimino]bisbenzoic acid]?
LD50 at 168 h ([1]; iv, read-out: LD50 value (mg/kg body weight) Mouse i.v.): 225 mg/kg; LD50 at 168 h ([1]; po, read-out: LD50 value (mg/kg body weight) Mouse p.o.): > 10000 mg/kg; LD50 at 168 h [2]: > 10000 mg/kg; IC50 (hyaluronidase [3]): 40 µM; Inhibition % Gastric Acidity ([4]; id 100 mg/kg): 64.5%; Inhibition % secretion amount of gastric juice ([4]; id 100 mg/kg): 28.1%; Inhibition % total pepsin titer ([4]; id 100 mg/kg): 42.5%; Inhibition % Gastric Acidity ([4]; id 200 mg/kg): 99.5%; Inhibition % secretion amount of gastric juice ([4]; id 200 mg/kg): 59.0%; Inhibition % total pepsin titer ([4]; id 200 mg/kg): 69.3%; Inhibition % Gastric Acidity ([4]; ip 10 mg/kg): 52.3%; Inhibition % secretion amount of gastric juice ([4]; ip 10 mg/kg): 26.3%; Inhibition % total pepsin titer ([4]; ip 10 mg/kg): 31.4%; Inhibition % Gastric Acidity ([4]; ip 50 mg/kg): 88.0%; Inhibition % secretion amount of gastric juice ([4]; ip 50 mg/kg): 70.9%; Inhibition % total pepsin titer ([4]; ip 50 mg/kg): 60.7%

With O=C(O)c1cc(=O)c2c(OCC(O)COc3cccc4oc(C(=O)O)cc(=O)c34)cccc2o1 [DSCG, disodium cromoglicate, reference compound] as the molecule, how does the activity at 1000 µM [5] read?
Its activity at 1000 µM is 42.2%.

What about the “Extended rate (%)” value [6] of the same molecule?
The value was 23.9%.

What about the “Average time for falling Mean ± S.E.” value ([6]; N 5) of the same molecule?
Its value is 192.5 ± 20.3 s.

What about the “Required time (sec.) for falling and Number of death (#), single animals” value ([6]; N 5, observed 10 minutes, # shows death) of the same molecule?
The value was 142 s and 188 s and 199 s and 241 s and > 600 s.

And the “effect on hyaluronidase activity (in words)” value (hyaluronidase [7])?
The value was “inhibit hyaluronidase activity”.

And the activity at 1000 µM [8]?
Its activity at 1000 µM is 76.8%.

What about the activity at 1000 µM [9] of the same molecule?
Its activity at 1000 µM is 105%.

What about the activity at 1000 µM ([10]; 10^-3 M) of the same molecule?
The activity at 1000 µM was 60%.

What about the activity at 100 µM ([10]; 10^-4 M) of the same molecule?
The activity at 100 µM was 52.9%.

What about the inhibition in vivo at 100 mg/kg ([11]; read-out: Average Inhibition Rate (%) Antiserum Dilution: × 16) of the same molecule?
The inhibition in vivo at 100 mg/kg was 0.1%.

And the inhibition in vivo at 100 mg/kg ([11]; read-out: Average Inhibition Rate (%) Antiserum Dilution: × 32)?
Its inhibition in vivo at 100 mg/kg is 0.3%.

And the “anti-PCA activity by peroral administration (in words)” value ([11]; peroral)?
The value was “no activity”.

And the activity at 1000 µM [12]?
Its activity at 1000 µM is 105%.

And the inhibition in vivo at 100 mg/kg ([13]; read-out: Inhibition, Anti-serum Dilution: × 12)?
Its inhibition in vivo at 100 mg/kg is 0%.

And the inhibition in vivo at 100 mg/kg ([13]; read-out: Inhibition, Anti-serum Dilution: × 24)?
Its inhibition in vivo at 100 mg/kg is 0%.

And the activity at 1000 µM [14]?
Its activity at 1000 µM is 76.8%.
